Reference: paper PMC5755735, “Discovery of indolylpiperazinylpyrimidines with dual-target profiles at adenosine A2A and dopamine D2 receptors for Parkinson's disease treatment” (PLoS ONE, 2018)
Where two headings read alike, the source gives them in different places.

How the values were obtained:
[1] = biological target: human dopamine D2 receptor (Homo sapiens, UniProt P14416); assay: adenylyl cyclase inhibition (cAMP accumulation) assay in CHO cells transfected with D2 receptor; type: cell-based; parameters: expressed in transfected cells; host or cells: CHO cells
Procedure: CHO cells transfected with D2 receptors were cultured and then serum starved overnight. Cells were treated with various concentrations of ligands (25 μL of 10X solution), stimulated with forskolin (0.5 μM) and 3-isobutyl-1-methylxanthine (IBMX) (0.5 mM), and incubated for 15 minutes. After lysis, cAMP content was determined by ELISA.

[2] = biological target: T1, human A2B receptors expressed in CHO cells (Homo sapiens, UniProt P29275); assay: inhibition of NECA-stimulated adenylyl cyclase activity at hA2B
T1 sequence (P29275 1-332): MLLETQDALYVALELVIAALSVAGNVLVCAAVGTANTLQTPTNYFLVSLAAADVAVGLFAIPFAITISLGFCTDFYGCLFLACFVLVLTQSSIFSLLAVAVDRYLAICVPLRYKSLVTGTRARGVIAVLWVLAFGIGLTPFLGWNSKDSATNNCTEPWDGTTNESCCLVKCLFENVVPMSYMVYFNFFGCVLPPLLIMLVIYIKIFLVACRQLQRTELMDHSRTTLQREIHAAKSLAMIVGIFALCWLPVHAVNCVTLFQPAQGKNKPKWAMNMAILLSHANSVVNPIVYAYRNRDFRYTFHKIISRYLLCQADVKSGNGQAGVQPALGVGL
Procedure: For measurement of adenylyl cyclase activity in the hA2B receptors, one-step centrifugation procedure was used; the homogenate was sedimented for 30 min at 54,000 g. The so-obtained crude membrane pellet was re-suspended in 50 mM Tris/HCl, pH 7.4 and used for the adenylyl cyclase assay immediately.
The membranes were incubated with about 150,000 cpm of [α-^32P]adenosine triphosphate ([α-^32P]ATP) and test compounds in different concentrations for 20 min. A non-linear regression analysis was applied to calculate the IC50 of the adenylyl cyclase activity assay. From the IC50 values, Ki values were then calculated using the Cheng and Prusoff equation [46].

[3] = system: LRRK2 G2019S-expressing flies; assay: LRRK2 G2019S Drosophila model of PD (climbing assay, DA neuron count); type: in vivo
From the text: (§1) Parkin-null (pk-/-) flies were first used to evaluate compound 5. […] (Fig 8B), the cluster used widely in the parkin-null flies. Compound 5 was subsequently examined for its ability to ameliorate LRRK2 G2019S-induced PD phenotypes. […] Taken together, these findings indicate that compound 5 acts as a suppressor of DA neuron dysfunction in two Drosophila genetic PD models—one with parkin-null which represents recessive PD, and one with transgene LRRK2 G2019S-mutant, which represents dominant PD.
(§2) Fly lines for 24B-Gal4 (muscle specific), ddc-Gal4 (dopaminergic neuron-specific), elav-Gal4 (pan-neuronal), UAS-mito-GFP, and UAS-dAMPK-KA were purchased from Bloomington Drosophila Stock Center. The parkin-null mutant flies were kind gifts from Chung J. and Cho K. S. (Korea Advanced Institute of Science and Technology, Daejeon, Korea). […] After a 2-hour recovery period from CO2 exposure, flies were gently tapped to the bottom of the column, and the number of flies that reached the top of column at 1 min was counted. […] DA neurons were quantified according to previously published method. The size of mito-GFP puncta was measured using the ImageJ program and expressed as mean ± SD (n ≥ 10 DA neurons per experimental group). Statistical significance for all the quantitative data obtained were analyzed using one-way ANOVA with Tukey’s test HSD post hoc test (*p < 0.05, **p < 0.01).

parkin-null flies = assay: parkin-null Drosophila model of PD (climbing assay, DA neuron count); type: in vivo; details: 50 μM
From the text: as §1, §2

aqueous solubility = type: physicochemical; details: universal aqueous buffer, 22.5 °C, pH 7.4, aqueous buffer, kinetic from dmso stock
Procedure: The 10 μL stock solution of the ligand (10 mM in DMSO) was added to the universal aqueous buffer (pH 7.4), and the mixture was sonicated. 300 μL of the turbid mixture was transferred to the 3 wells of MultiScreen HTS- PCF filter plate (Millipore Corp., Ireland), and the plate was covered and incubated with gentle shaking (250 rpm, 3 h) at room temperature (22.5 ± 2.5°C). After the period of incubation (3 h), the filter plate was placed on a vacuum manifold and the contents were filtered into a 96-well UV plate. After filtration, 200 μL of filtrate was transferred from each well to the PP vial. Absorbances of the solutions were quantified by HPLC-UV and read at 250 nm.

human dopamine D2 receptor, sequence (P14416 whole entry): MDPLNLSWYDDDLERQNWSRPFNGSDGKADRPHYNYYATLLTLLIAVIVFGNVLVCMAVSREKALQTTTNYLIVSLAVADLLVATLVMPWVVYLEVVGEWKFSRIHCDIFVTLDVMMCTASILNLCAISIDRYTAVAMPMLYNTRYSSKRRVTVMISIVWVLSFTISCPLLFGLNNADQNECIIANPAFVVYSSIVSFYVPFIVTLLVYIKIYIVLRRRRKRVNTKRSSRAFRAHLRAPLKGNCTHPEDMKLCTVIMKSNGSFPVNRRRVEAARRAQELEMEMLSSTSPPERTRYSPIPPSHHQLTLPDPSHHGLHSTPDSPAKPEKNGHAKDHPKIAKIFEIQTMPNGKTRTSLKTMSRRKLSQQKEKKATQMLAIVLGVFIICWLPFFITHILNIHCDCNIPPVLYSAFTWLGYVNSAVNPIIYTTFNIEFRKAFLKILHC

Compound | functional activity at D2 receptor (cAMP accumulation induced by forskolin/IBMX) ([1]; 1 μM, 10 μM and 100 μM) | inhibition of cAMP accumulation (optimal inhibition) ([1]; 100 μM, p = 0.0232) | Ki [2] [µM] | climbing score ([3]; 50 μM and 100 μM) | DA neuronal count ([3]; LRRK2 G2019S-expressing flies) | DA neuronal count (PPL1 cluster) (parkin-null flies) | climbing score (parkin-null flies; compared with untreated mutant flies) | solubility at 3 h (aqueous solubility; ambient temperature, pH 7.4, guideline of Kerns et al. [40], read-out: aqueous solubility class) [µg/mL] | solubility at 3 h (aqueous solubility; pH 7.4, 3 h, room temperature, read-out: Solubility (μM), 3 h) [µM] | solubility at 3 h (aqueous solubility; pH 7.4, 3 h, room temperature, read-out: Solubility (μg/mL), 3 h) [µg/mL]
Cc1cc(C)nc(N2CCN(C(=O)Cc3c(C)[nH]c4ccccc34)CC2)n1 [Compound 6, 1‐[4‐(4,6‐Dimethylpyrimidin‐2‐yl)piperazin‐1‐yl]‐2‐(2‐methyl‐1H‐indol‐3‐yl)ethan‐1‐one] | acted as a D2 receptor agonist | comparable potency to 100 nM of quinpirole | > 20 |  |  |  |  |  |  | 
Cc1cc(C)nc(N2CCN(C(=O)c3c[nH]c4ccccc34)CC2)n1 [Compound 5, 3‐[4‐(4,6‐Dimethylpyrimidin‐2‐yl)piperazine‐1‐carbonyl]‐1H‐indole] |  |  |  | improvement in climbing (in a concentration-dependent manner) | mitigation of DA neuron degeneration | reduction of DA neuron loss in the PPL1 cluster | improvement in climbing scores | < 10 | 27 ± 0.32 | 9.07 ± 0.11
